Laboratory results taken from US7534762B2, “Polypeptides having antimicrobial activity and polynucleotides encoding same” (Novozymes A/S, priority 2005, dated 2009).

What was measured:
Experiment in all cases: Radial diffusion assay
Type in all cases: cell-based
[1] = system: Acinetobacter anitratus (ATCC 17903); conditions: TCA precipitated culture supernatant, 100 x concentrated; 10 units = 1 mm diameter clear zone around the 3 mm sample well
Description: (§1) The supernatants described above in Example 4 were analyzed in a radial diffusion assay following a previously published protocol for detection of antimicrobial activity (Lehrer et al., (1991) Ultra sensitive assays for endogenous antimicrobial polypeptides J Immunol Methods 137: 167-173). Target bacteria (10^6 colony forming units (CFU)) were added to 10 ml of underlay agarose (1% low electro-endosmosis agarose, 0.03% Trypticase soy broth, 10 mM sodium phosphate, pH 7.4, 37 degrees Celsius). Suspension was solidified on an INTEGRID Petri Dish (Becton Dickinson Labware, NJ). A 3 mm Gel Puncher was used to make holes in the underlay agarose (Amersham Pharmacia Biotech, Sweden). Samples were added to the holes and incubated at 37 degrees Celsius, 3 hours. An overlay was poured on top and the plate was incubated overnight (LB media, 7.5% Agar). Antimicrobial activity was seen as bacterial clearing zones around the wells. Living cells was counterstained by adding 10 ml, 0.2 mM MTT (3-(4,5-Dimethylthiazol-2-yl)-2,5-diphenyltetrazolium bromide Thiazolyl blue). All standard protocols have been described elsewhere (Sambrook, Fritsch, and Maniatis, 1989). An electronic picture is taken. The bacterial growth inhibition is seen as clearing zones, which are measured to the nearest 0.1 mm and subtracted the diameter of the hole. The results are shown as zones of inhibition of native samples (Table 3) and concentrated samples (Table 4) against a range of test strains: • A: Staphylococcus simulans (ATCC 11631) • B: Staphylococcus carnosus (ATCC 51365) • C: Streptococcus hyointestinalis (ATCC 49169) • D: Bacillus subtilis (ATCC 23857) • E: Enterococcus saccharolyticus (ATCC 43076) • F: Escherichia coli (ATCC 10536) • G: Acinetobacter anitratus (ATCC 17903) • H: Erwinia chrysanthemi (ATCC 11663) • J: Pseudomonas boreopolis (ATCC 15452)
(§2) Concentration of samples was performed by precipitation of 45 ml culture supernatant with 2.5 ml 100% TCA and resuspension of the pelleted precipitate in 450 μl resuspension buffer (100 mM Tris pH 8, 100 mM NaCl).

[2] = system: Bacillus subtilis (ATCC 23857); conditions: 10 units = 1 mm diameter clear zone around the 3 mm sample well
Description: as §1, §2

[3] = system: Enterococcus saccharolyticus (ATCC 43076); conditions: 10 units = 1 mm diameter clear zone around the 3 mm sample well
Description: as §1, §2

[4] = system: Erwinia chrysanthemi (ATCC 11663); conditions: TCA precipitated culture supernatant, 100 x concentrated; 10 units = 1 mm diameter clear zone around the 3 mm sample well
Description: as §1, §2

[5] = system: Escherichia coli (ATCC 10536); conditions: TCA precipitated culture supernatant, 100 x concentrated; 10 units = 1 mm diameter clear zone around the 3 mm sample well
Description: as §1, §2

[6] = system: Pseudomonas boreopolis (ATCC 15452); conditions: TCA precipitated culture supernatant, 100 x concentrated; 10 units = 1 mm diameter clear zone around the 3 mm sample well
Description: as §1, §2

[7] = system: Staphylococcus carnosus (ATCC 51365); conditions: 10 units = 1 mm diameter clear zone around the 3 mm sample well
Description: as §1, §2

[8] = system: Staphylococcus simulans (ATCC 11631); conditions: TCA precipitated culture supernatant, 100 x concentrated; 10 units = 1 mm diameter clear zone around the 3 mm sample well
Description: as §1, §2

[9] = system: Streptococcus hyointestinalis (ATCC 49169); conditions: 10 units = 1 mm diameter clear zone around the 3 mm sample well
Description: as §1, §2

[10] = TCA precipitated culture supernatant, 100 x concentrated
[11] = native culture supernatant of recombinant A. oryzae clone

| Substance | zone of inhibition, test strain G [1] [units] | zone of inhibition, test strain D [2, 10] [units] | zone of inhibition, test strain D [2, 11] [units] | zone of inhibition, test strain E [3, 10] [units] | zone of inhibition, test strain E [3, 11] [units] | zone of inhibition, test strain H [4] [units] | zone of inhibition, test strain F [5] [units] | zone of inhibition, test strain J [6] [units] | zone of inhibition, test strain B [7, 10] [units] | zone of inhibition, test strain B [7, 11] [units] | zone of inhibition, test strain A [8] [units] | zone of inhibition, test strain C [9, 10] [units] | zone of inhibition, test strain C [9, 11] [units] |
| --- | --- | --- | --- | --- | --- | --- | --- | --- | --- | --- | --- | --- | --- |
| Marinasin 1B: Arenicola marina antimicrobial polypeptide, amino acids 1 to 49 of SEQ ID NO: 8, expressed in Aspergillus oryzae (MKFFLPIMIALAFAAVAMATADTEPVEPEEELSIMLPFVEDDLLEKPIP; listed as Arenicola marina) | 26 | 28 | 10 | 30 | 9 | 25 | 25 | 28 | 25 | 21 | 22 | 22 | 10 |
| Marinasin 2A: Arenicola marina antimicrobial polypeptide, amino acids 1 to 46 of SEQ ID NO: 12, expressed in Aspergillus oryzae (MNQITLLMLLVAVAVMATVTGQSLDDESDVENVSQPEQRGWCWQWT; listed as Arenicola marina) | 39 | 38 | 16 | 41 | 14 | 40 | 25 | 39 | 35 | 26 | 34 | 35 | 12 |
| Marinasin 4: Arenicola marina antimicrobial polypeptide, amino acids 1 to 45 of SEQ ID NO: 22, expressed in Aspergillus oryzae (MKPIILLMLLVAVVVMATVTAEPLDEESDVEIVSQPEQRIPCWTP; listed as Arenicola marina) | 6 | 32 | 32 | 68 | 43 | 0 | 0 | 0 | 81 | 60 | 14 | 59 | 54 |
| Marinasin 5: Arenicola marina antimicrobial polypeptide, amino acids 1 to 49 of SEQ ID NO: 24, expressed in Aspergillus oryzae (MKFLLPLMVVMAFAAVAMATADTEPVEREEGVFIMLPFVEDDMLEKPIL; listed as Arenicola marina) | 26 | 25 |  | 23 |  | 26 | 19 | 22 | 13 |  | 22 | 24 |  |
| Marinasin 6: Arenicola marina antimicrobial polypeptide, amino acids 1 to 44 of SEQ ID NO: 26, expressed in Aspergillus oryzae (MTTLLLMFGVAIVVLATVAAVPLQDDDVLDPSGLVEGETRGRSC; listed as Arenicola marina) |  |  | 39 |  | 40 |  |  |  |  |  |  |  | 45 |
